Assay results as given in patent US20210330611A1, “THERAPY FOR NEUROLOGICAL DISEASES/DISORDERS” (priority 2020, published 2021).
Where two headings read alike, the source gives them in different places. Where a SMILES comes first, the peptide text is derived from it. Bridges are numbered along the chain shown (N, C = ends). [ ]: non-standard residue; d: D form. The star is where a group is joined. X1 = CC[C@H](C)CCCCC(=O)*; Dab = NCC[C@H](N)C(=O)O

What was measured:
primary rat microglia [1] = test: Cell toxicity (dead cells, size <150 μm2) in LPS assay; conditions: primary microglia HTS
[2] = tested on: LPS-induced microglia activation; test: Image-based assay of LPS-induced microglia activation (HTS and dose response); format: cell-based, rat; conditions: for inhibition at 10 µM / LPS % inhibition: primary microglia HTS; for inhibition at 10 µM: read-out: LPS % inhibition
[3] = tested on: fibrin-induced microglia activation; test: Image-based assay of fibrin-induced microglia activation (HTS and dose response); format: cell-based, rat; conditions: for inhibition at 10 µM / Fibrin % inhibition: primary microglia HTS; for inhibition at 10 µM: read-out: Fibrin % inhibition
primary rat microglia [4] = test: Cell toxicity (dead cells, size <150 μm2) in coated fibrin (cFib) assay; conditions: primary microglia HTS;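 note: share of dead cells sized under 150 µm2 at 10 µM in fibrin-stimulated microglia HTS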
[5] = tested on: fibrin- and LPS-induced microglia activation; test: cells; format: cell-based, rat
[6] = LPS stimulation, decreased size (<150 μm^2) as marker of toxicity
[7] = Rattus norvegicus, Microglia, 48 h, LPS stimulation, increased cell size (>800 μm^2) as marker of activation
[8] = Rattus norvegicus, Microglia, fibrin stimulation, increased cell size (>800 μm^2) as marker of activation
[9] = fibrin stimulation, decreased size (<150 μm^2) as marker of toxicity
[10] = quadrant by fibrin and LPS inhibition in HTS of 1907 compounds
[11] = LPS stimulation, increased cell size (>800 μm^2) as marker of activation
[12] = fibrin stimulation, increased cell size (>800 μm^2) as marker of activation
[13] = 10 μM, LPS assay, cell size <150 μm^2 as marker of toxicity
[14] = Rattus norvegicus, Microglia, 10 μM, LPS-stimulated, cell size >800 μm^2 as marker of activation
[15] = Rattus norvegicus, Microglia, 10 μM, fibrin-stimulated, cell size >800 μm^2 as marker of activation
[16] = 10 μM, fibrin assay, cell size <150 μm^2 as marker of toxicity
[17] = HTS of 1907 compounds, quadrant by fibrin and LPS inhibition

SMILES	LPS % cell toxicity (primary rat microglia [1]; [6])	Fibrin % cell toxicity (primary rat microglia [4]; [9])	Quadrant (FIG. 5b) [5, 10]	LPS % cell toxicity (primary rat microglia [1]; [13])	inhibition at 10 µM [2, 14]	inhibition at 10 µM [3, 15]	Fibrin % cell toxicity (primary rat microglia [4]; [16])	Quadrant (FIG. 5b) [5, 17]	further results
C[C@]12C/C(=C/O)C(=O)C[C@@H]1CC[C@@H]1[C@@H]2CC[C@@]2(C)[C@H]1CC[C@]2(C)O [Oxymetholone]	0%	1%	Q4	–	–	–	–	–	inhibition at 10 µM [2, 7]: -7%; inhibition at 10 µM [3, 8]: -18%
CN1CCCN=C1COC(=O)C(O)(c1ccccc1)C1CCCCC1 (stereo not drawn) [Oxyphencyclimine]	0%	1%	Q4	–	–	–	–	–	inhibition at 10 µM [2, 7]: 11%; inhibition at 10 µM [3, 8]: 15%
CC[N+](C)(CC)CCOC(=O)C(O)(c1ccccc1)C1CCCCC1 (stereo not drawn) [Oxyphenonium]	1%	1%	Q4	–	–	–	–	–	inhibition at 10 µM [2, 7]: 30%; inhibition at 10 µM [3, 8]: -14%
Cc1ccc(O)cc1 [P-Cresol]	0%	0%	Q4	–	–	–	–	–	LPS % inhibition [2, 11]: 15%; Fibrin % inhibition [3, 12]: −15%
NCCC(O)(P(=O)(O)O)P(=O)(O)O [Pamidronate]	0%	1%	Q4	–	–	–	–	–	inhibition at 10 µM [2, 7]: -5%; inhibition at 10 µM [3, 8]: 0%
CC(C)(CO)C(O)C(=O)NCCCO (stereo not drawn) [Panthenol]	0%	1%	Q4	–	–	–	–	–	inhibition at 10 µM [2, 7]: 6%; inhibition at 10 µM [3, 8]: -32%
COc1ccnc(C[S+]([O-])c2nc3cc(OC(F)F)ccc3[n-]2)c1OC.[Na+] (stereo not drawn) [Pantoprazole, Pantoprazole Sodium Salt]	0%	0%	Q4	–	–	–	–	–	LPS % inhibition [2, 11]: −1%; Fibrin % inhibition [3, 12]: −8%
COc1ccc(Cc2nccc3cc(OC)c(OC)cc23)cc1OC [Papaverine]	0%	0%	Q4	–	–	–	–	–	inhibition at 10 µM [2, 7]: 27%; inhibition at 10 µM [3, 8]: 12%
NC(=O)NC(=O)Cc1ccccc1 [Phenacemide]	1%	1%	Q1	–	–	–	–	–	inhibition at 10 µM [2, 7]: 66%; inhibition at 10 µM [3, 8]: -9%
CC[C@H](C)CCCCC(=O)N[C@@H](CCN)C(=O)N[C@H](C(=O)N[C@@H](CCN)C(=O)N[C@H]1CCNC(=O)[C@H]([C@@H](C)O)NC(=O)[C@H](CCN)NC(=O)[C@H](CCN)NC(=O)[C@H](CC(C)C)NC(=O)[C@@H](Cc2ccccc2)NC(=O)[C@H](CCN)NC1=O)[C@@H](C)O [Polymyxin B1] (X1-[Dab]T[Dab][Dab][Dab][dF]L[Dab][Dab]T; lactam 4-C)	1%	1%	Q1	–	–	–	–	–	LPS % inhibition [2, 11]: 60%; Fibrin % inhibition [3, 12]: −21%
CC(=O)OCC(=O)[C@@]1(O)CC[C@H]2[C@@H]3CCC4=CC(=O)C=C[C@]4(C)[C@H]3[C@@H](O)C[C@@]21C [Prednisolone acetate, reference compound]	6%	4%	Q2	–	–	–	–	–	inhibition at 10 µM [2, 7]: 111%; IC50 ([2]; Rattus norvegicus, Microglia, Table 7, read-out: LPS_IC50): 3 nM; IC50 ([3]; Rattus norvegicus, Microglia, Table 7, read-out: fib_IC50): 3 nM; inhibition at 10 µM [3, 8]: 109%; Quadrant (FIG. 5b) ([5]; Table 2, screen at 10 μM): Q2; Activity ([5]; Table 7, fib = fibrin, LPS, tox = toxicity): fib/LPS
CN(C)CCCN1c2ccccc2Sc2ccccc21 [Promazine]	64%	1%	Q1	–	–	–	–	–	inhibition at 10 µM [2, 7]: 117%; inhibition at 10 µM [3, 8]: 46%
C[C@]12Cc3c[nH]nc3C[C@@H]1CC[C@@H]1[C@@H]2CC[C@@]2(C)[C@H]1CC[C@]2(C)O [Stanozolol]	–	–	–	1%	33%	-5%	1%	Q4	–
Cc1cn([C@H]2C=C[C@@H](CO)O2)c(=O)[nH]c1=O [Stavudine]	–	–	–	0%	19%	-17%	1%	Q4	–
O=C(O)[C@@H](S)[C@@H](S)C(=O)O [Succimer]	–	–	–	0%	-5%	-37%	0%	Q4	–
C[N+](C)(C)CCOC(=O)CCC(=O)OCC[N+](C)(C)C [Succinylcholine]	–	–	–	0%	-5%	-54%	1%	Q4	–
O=C(O)CCC(=O)Nc1ccc(S(=O)(=O)Nc2nccs2)cc1 [Succinylsulfathiazole]	–	–	–	1%	16%	15%	1%	Q4	–

SMILES	LPS % cell toxicity (primary rat microglia [1]; [6])	Fibrin % cell toxicity (primary rat microglia [4]; [9])	Quadrant (FIG. 5b) [5, 10]	LPS % cell toxicity (primary rat microglia [1]; [13])	inhibition at 10 µM [2, 14]	inhibition at 10 µM [3, 15]	Fibrin % cell toxicity (primary rat microglia [4]; [16])	Quadrant (FIG. 5b) [5, 17]	further results
OC[C@H]1O[C@H](O[C@]2(CCl)O[C@H](CCl)[C@@H](O)[C@@H]2O)[C@H](O)[C@@H](O)[C@H]1Cl [Sucralose]	–	–	–	0%	16%	0%	1%	Q4	–
S=C1SCN(Cc2ccccc2)CN1Cc1ccccc1 [Sulbentine]	–	–	–	0%	13%	48%	1%	Q4	–
Nc1ccc(S(=O)(=O)NC(=O)c2ccccc2)cc1 [Sulfabenzamide]	–	–	–	1%	19%	-15%	1%	Q4	–
NC(=O)NS(=O)(=O)c1ccc(N)cc1 [Sulfacarbamide]	–	–	–	0%	46%	45%	1%	Q4	–
CC(=O)NS(=O)(=O)c1ccc(N)cc1 [Sulfacetamide]	–	–	–	0%	10%	-2%	1%	Q4	–
Nc1ccc(S(=O)(=O)Nc2ccc(Cl)nn2)cc1 [Sulfachlorpyridazine]	–	–	–	0%	14%	18%	1%	Q4	–
COc1cc(NS(=O)(=O)c2ccc(N)cc2)nc(OC)n1 [Sulfadimethoxine]	–	–	–	0%	13%	42%	1%	Q4	–
COc1ncnc(NS(=O)(=O)c2ccc(N)cc2)c1OC [Sulfadoxine]	–	–	–	0%	3%	-12%	1%	Q4	–
[H]/N=C(/N)NS(=O)(=O)c1ccc(N)cc1 [Sulfaguanidine]	–	–	–	0%	12%	-23%	1%	Q4	–
Cc1ccnc(NS(=O)(=O)c2ccc(N)cc2)n1 [Sulfamerazine]	–	–	–	0%	12%	-2%	1%	Q4	–
COc1cnc(NS(=O)(=O)c2ccc(N)cc2)nc1 [Sulfameter]	–	–	–	0%	11%	4%	1%	Q4	–
Cc1nnc(NS(=O)(=O)c2ccc(N)cc2)s1 [Sulfamethizole]	–	–	–	0%	16%	-3%	1%	Q4	–
COc1ccc(NS(=O)(=O)c2ccc(N)cc2)nn1 [Sulfamethoxypyridazine]	–	–	–	0%	15%	21%	1%	Q4	–
COc1cc(NS(=O)(=O)c2ccc(N)cc2)ncn1 [Sulfamonomethoxine]	–	–	–	1%	19%	38%	1%	Q4	–
CC(=O)Nc1ccc(S(=O)(=O)Nc2ccc([N+](=O)[O-])cc2)cc1 [Sulfanitran]	–	–	–	0%	18%	10%	1%	Q4	–
Nc1ccc(S(=O)(=O)Nc2ccnn2-c2ccccc2)cc1 [Sulfaphenazole]	–	–	–	0%	14%	-4%	1%	Q4	–
O=C1C(CC[S+]([O-])c2ccccc2)C(=O)N(c2ccccc2)N1c1ccccc1 (stereo not drawn) [Sulfinpyrazone]	–	–	–	1%	13%	-6%	1%	Q4	–
